From the supplement of paper PMC11208160

Assay: recombinant barcode read abundance after kanamycin selection (control-corrected) (log10(CPM+1)); higher = more efficient recombination; sequences stand for … in AGTGCAGAGAAAATCGGCCAGTTTTCTCTGCCTGCAGTCCGCATGCCGT…AGATTTATGCAGCGGACTGCCTTTCTCCCAAAGTGATAAACCGGACAGTATCATGGACCGGTTTTCCCGGTAATCCGTATTTGCAAGGTTGGTTTCACT; site = the 11-nt target
Summary of the method: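 A vector carrying a T7-inducible recombinase and the last 73 bp of the bridge RNA received, by Gibson cloning, oligos encoding a promoter, target, barcode and the first 104 bridge RNA bases under J23119. The pooled constructs entered E. coli together with a donor plasmid by electroporation. Selection used chloramphenicol/ampicillin/kanamycin with 0.1 mM IPTG, with chloramphenicol/ampicillin LB agar as the control, each in two replicates. Recombination efficiency is the averaged, control-corrected counts-per-million of barcodes at recombinant junctions, reported as log10(CPM+1).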
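Note: IS621 recombinase and bridge RNA in Escherichia coli cells.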

Point of comparison: “GTCCATTCTTGGGTTCTAACCTGTTGCAT (site GGACATTCTAT)”, “recombinant barcode read abundance (log10)” value 0.101. Against it:
- GTCAATCCTTGGGTTCTAACCTGTTGCTG (site GTCAAACCTCA) — within 0.2 log units, 0.00666
- GTCAATCCTTGGGTTCTAACCTGTTGCTG (site GTCAACCCTCA) — within 0.2 log units, 0.288
- GTCAATCCTTGGGTTCTAACCTGTTGCTG (site GTCAAGCCTCA) — within 0.2 log units, 0.193
- GTCAATCCTTGGGTTCTAACCTGTTGCTG (site GTCAATCCTCA) — higher, 1.49
- GTCACCGCTTGGGTTCTAACCTGTTGCCT (site GTAACCGCTAG) — higher, 0.409
- GTCACCGCTTGGGTTCTAACCTGTTGCCT (site GTCACCGCTAG) — higher, 2.08
- GTCACCGCTTGGGTTCTAACCTGTTGCCT (site GTGACCGCTAG) — within 0.2 log units, 0.129
- GTCACCGCTTGGGTTCTAACCTGTTGCCT (site GTTACCGCTAG) — higher, 0.464
- GTCATGGCTTGGGTTCTAACCTGTTGCCT (site GTCAGGGCTAG) — within 0.2 log units, 0.0945
- GTCATGGCTTGGGTTCTAACCTGTTGCCT (site GTCATGGCTAG) — within 0.2 log units, 0.283
- GTCCACTCTTGGGTTCTAACCTGTTGCAC (site GTCCACCCTCT) — within 0.2 log units, 0.0658
- GTCCACTCTTGGGTTCTAACCTGTTGCAC (site GTCCACTCTGT) — higher, 2.21
- GTCCAGTCTTGGGTTCTAACCTGTTGCGT (site GTCCACTCTAA) — within 0.2 log units, 0.0578
- GTCCAGTCTTGGGTTCTAACCTGTTGCGT (site GTCCAGTCTAC) — higher, 3.16
- GTCCATTCTTGGGTTCTAACCTGTTGCAT (site GTCCATTCTAT) — higher, 1.56
- GTCCTATCTTGGGTTCTAACCTGTTGCCA (site ACGGATCCTAT) — within 0.2 log units, 0.0705
- GTCCTATCTTGGGTTCTAACCTGTTGCCA (site GTCCTATCTTG) — higher, 0.66
- GTCGAACCTTGGGTTCTAACCTGTTGCTA (site GTCGAACCTTA) — higher, 1.79
- GTCGAACCTTGGGTTCTAACCTGTTGCTA (site GTCGTAGCTTA) — within 0.2 log units, 0.0873
- GTCGCGCCTTGGGTTCTAACCTGTTGCCT (site GTCGCGACTAG) — within 0.2 log units, 0.221
- GTCGCGCCTTGGGTTCTAACCTGTTGCCT (site GTCGCGCCTAG) — within 0.2 log units, 0.271
- GTCGCGCCTTGGGTTCTAACCTGTTGCCT (site GTCGCGGCTAG) — within 0.2 log units, 0.219
- GTCGCGCCTTGGGTTCTAACCTGTTGCCT (site GTCGCGTCTAG) — higher, 0.58
- GTCGGAACTTGGGTTCTAACCTGTTGCCT (site GTCGGAACTAG) — higher, 1.73
- GTCGGAACTTGGGTTCTAACCTGTTGCCT (site GTCGGCACTAG) — higher, 0.329
- GTCGGAACTTGGGTTCTAACCTGTTGCCT (site GTCGGGACTAG) — within 0.2 log units, 0.174
- GTCGGAACTTGGGTTCTAACCTGTTGCCT (site GTCGGTACTAG) — within 0.2 log units, 0.0137
- GTCGGTACTTGGGTTCTAACCTGTTGCCT (site GTCGGAACTAG) — within 0.2 log units, 0.115
- GTCGGTACTTGGGTTCTAACCTGTTGCCT (site GTCGGCACTAG) — within 0.2 log units, 0.0645
- GTCGGTACTTGGGTTCTAACCTGTTGCCT (site GTCGGGACTAG) — within 0.2 log units, 0.0319
- GTCGGTACTTGGGTTCTAACCTGTTGCCT (site GTCGGTACTAG) — higher, 0.952
- GTCGTCACTTGGGTTCTAACCTGTTGCCT (site GTCGTCACTAG) — higher, 0.334
- GTCGTCACTTGGGTTCTAACCTGTTGCCT (site GTCGTCCCTAG) — within 0.2 log units, 0.0716
- GTCGTCACTTGGGTTCTAACCTGTTGCCT (site GTCGTCGCTAG) — within 0.2 log units, 0.15
- GTCGTCACTTGGGTTCTAACCTGTTGCCT (site GTCGTCTCTAG) — within 0.2 log units, 0.0772
- GTCGTCCCTTGGGTTCTAACCTGTTGCCT (site GTCGTCACTAG) — within 0.2 log units, 0.0509
- GTCGTCCCTTGGGTTCTAACCTGTTGCCT (site GTCGTCCCTAG) — higher, 0.315
- GTCGTCCCTTGGGTTCTAACCTGTTGCCT (site GTCGTCGCTAG) — within 0.2 log units, 0.0602
- GTCGTCCCTTGGGTTCTAACCTGTTGCCT (site GTCGTCTCTAG) — within 0.2 log units, 0.0914
- GTCGTCTCTTGGGTTCTAACCTGTTGCCT (site GTCGTCACTAG) — within 0.2 log units, 0.0143
- GTCGTCTCTTGGGTTCTAACCTGTTGCCT (site GTCGTCCCTAG) — higher, 0.463
- GTCGTCTCTTGGGTTCTAACCTGTTGCCT (site GTCGTCGCTAG) — within 0.2 log units, 0.136
